This passage reports IC50 results from publication PMC5008855 (Organic & biomolecular chemistry, 2016).

Broadly, the IC50 is the point on the concentration scale where inhibition reaches its midpoint.

In the assay the target is T1, human COX-2 enzyme (cyclooxygenase II) (Homo sapiens, UniProt P35354).
T1 sequence (P35354 18-604): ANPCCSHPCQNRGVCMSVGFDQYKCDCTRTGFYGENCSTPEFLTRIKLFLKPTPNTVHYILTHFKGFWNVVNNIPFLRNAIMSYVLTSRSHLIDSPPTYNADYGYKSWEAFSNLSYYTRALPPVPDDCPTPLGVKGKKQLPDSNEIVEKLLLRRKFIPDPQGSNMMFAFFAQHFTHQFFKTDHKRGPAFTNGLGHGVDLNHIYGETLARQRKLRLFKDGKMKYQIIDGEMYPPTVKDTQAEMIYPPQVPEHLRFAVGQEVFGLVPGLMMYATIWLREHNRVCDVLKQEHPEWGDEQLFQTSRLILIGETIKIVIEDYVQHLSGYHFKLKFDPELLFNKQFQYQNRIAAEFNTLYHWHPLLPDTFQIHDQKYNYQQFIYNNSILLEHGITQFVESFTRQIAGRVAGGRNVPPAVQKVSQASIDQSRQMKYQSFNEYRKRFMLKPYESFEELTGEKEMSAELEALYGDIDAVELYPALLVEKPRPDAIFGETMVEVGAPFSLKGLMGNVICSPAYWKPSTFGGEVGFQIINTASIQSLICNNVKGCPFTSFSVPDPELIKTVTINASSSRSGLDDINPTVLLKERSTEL
The assay can be described thus: human COX-2 activity inhibition assay. In kind it is biochemical.

Regarding homoneoprofen [compound 2], the IC50 turned out to be 2000 nM.
